Literature values in patent US11798661B2, “Methods for lowering blood pressure with a dihydropyridine-type calcium channel blocker pharmaceutical composition” (A[…] Limited, priority 2018, dated 2023).

Settings: co-administration of 240 mL grapefruit juice with a single oral dose of amlodipine 10 mg

In the case of `CCOC(=O)C1=C(COCCN)NC(C)=C(C(=O)OC)C1c1ccccc1Cl` (racemic) [amlodipine, (RS)-3-ethyl 5-methyl 2-[(2-aminoethoxy)methyl]-4-(2-chlorophenyl)-6-methyl-1,4-dihydropyridine-3,5-dicarboxylate], the “effect on the pharmacokinetics of amlodipine” value is listed as “no significant effect”.
